Common to all, as to assay type: binding
In experiment [1] the target is T1, panel of 442 kinases (Homo sapiens, UniProt P35590).
T1 construct: purchased KINOMEscan
The following applies: kinase TIE1; compound concentration 10 µM. The source says: (§1) We assessed the selectivity of members of this scaffold using the KINOMEscan methodology across a near comprehensive panel of 442 kinases [[18,27]].

Experiment [2] deals with T2, panel of 442 kinases (Homo sapiens, UniProt P43405).
T2 construct: purchased KINOMEscan
The following applies: kinase SYK; compound concentration 10 µM.
Excerpt: as §1

Experiment [3] has as its target T3, panel of 442 kinases (Homo sapiens, UniProt P45983).
T3 construct: purchased KINOMEscan
The following applies: Compound Concentration 10 µM.
Excerpt: as §1

The target of experiment [4] is T4, panel of 442 kinases (Homo sapiens, UniProt Q14680).
T4 construct: purchased KINOMEscan
The following applies: Compound Concentration 10 µM.
Excerpt: as §1

T1 sequence (P35590 22-1138): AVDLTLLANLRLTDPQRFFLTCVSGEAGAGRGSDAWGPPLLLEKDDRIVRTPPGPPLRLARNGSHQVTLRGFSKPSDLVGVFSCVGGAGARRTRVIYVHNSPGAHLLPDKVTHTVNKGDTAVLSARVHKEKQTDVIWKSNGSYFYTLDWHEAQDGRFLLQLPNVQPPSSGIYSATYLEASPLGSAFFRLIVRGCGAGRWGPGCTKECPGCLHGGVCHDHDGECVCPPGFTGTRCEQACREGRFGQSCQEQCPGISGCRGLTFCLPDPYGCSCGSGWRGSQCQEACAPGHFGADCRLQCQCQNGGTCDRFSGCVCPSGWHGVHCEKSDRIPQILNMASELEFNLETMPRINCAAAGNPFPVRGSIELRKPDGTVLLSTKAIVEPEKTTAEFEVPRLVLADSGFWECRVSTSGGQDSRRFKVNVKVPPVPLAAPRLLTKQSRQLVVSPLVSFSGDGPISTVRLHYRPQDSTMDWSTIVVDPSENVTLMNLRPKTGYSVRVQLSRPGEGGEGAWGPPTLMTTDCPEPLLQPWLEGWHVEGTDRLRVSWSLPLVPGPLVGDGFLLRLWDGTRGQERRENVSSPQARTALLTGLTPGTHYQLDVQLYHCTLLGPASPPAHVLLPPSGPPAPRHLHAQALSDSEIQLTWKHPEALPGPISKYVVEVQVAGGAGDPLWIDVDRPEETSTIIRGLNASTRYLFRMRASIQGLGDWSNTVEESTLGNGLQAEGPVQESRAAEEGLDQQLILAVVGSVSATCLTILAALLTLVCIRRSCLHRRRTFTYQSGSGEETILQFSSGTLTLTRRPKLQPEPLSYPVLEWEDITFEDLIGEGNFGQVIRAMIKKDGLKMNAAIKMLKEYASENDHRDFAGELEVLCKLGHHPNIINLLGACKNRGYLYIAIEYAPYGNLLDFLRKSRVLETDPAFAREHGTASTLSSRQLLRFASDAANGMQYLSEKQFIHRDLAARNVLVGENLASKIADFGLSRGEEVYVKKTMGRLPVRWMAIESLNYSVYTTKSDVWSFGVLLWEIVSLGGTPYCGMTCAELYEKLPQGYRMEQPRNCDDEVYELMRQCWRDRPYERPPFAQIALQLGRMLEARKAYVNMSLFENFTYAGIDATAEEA
T4 sequence (Q14680 whole entry): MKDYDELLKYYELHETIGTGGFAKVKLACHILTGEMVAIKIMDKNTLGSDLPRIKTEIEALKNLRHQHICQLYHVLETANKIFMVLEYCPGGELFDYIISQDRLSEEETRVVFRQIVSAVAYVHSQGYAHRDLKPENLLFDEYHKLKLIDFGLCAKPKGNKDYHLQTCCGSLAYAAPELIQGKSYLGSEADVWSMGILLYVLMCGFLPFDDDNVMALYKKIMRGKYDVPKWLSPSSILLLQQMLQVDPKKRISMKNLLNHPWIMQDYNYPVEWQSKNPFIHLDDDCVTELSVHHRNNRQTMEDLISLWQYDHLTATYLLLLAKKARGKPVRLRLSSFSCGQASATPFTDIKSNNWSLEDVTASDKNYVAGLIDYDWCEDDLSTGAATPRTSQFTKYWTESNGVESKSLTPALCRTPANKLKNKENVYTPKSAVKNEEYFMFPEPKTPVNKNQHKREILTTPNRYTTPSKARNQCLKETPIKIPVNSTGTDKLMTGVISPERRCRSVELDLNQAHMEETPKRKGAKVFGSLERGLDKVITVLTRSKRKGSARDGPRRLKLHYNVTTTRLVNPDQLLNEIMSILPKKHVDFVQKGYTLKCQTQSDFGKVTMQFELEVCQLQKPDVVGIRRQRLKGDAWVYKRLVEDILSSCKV
T3 sequence (P45983 whole entry): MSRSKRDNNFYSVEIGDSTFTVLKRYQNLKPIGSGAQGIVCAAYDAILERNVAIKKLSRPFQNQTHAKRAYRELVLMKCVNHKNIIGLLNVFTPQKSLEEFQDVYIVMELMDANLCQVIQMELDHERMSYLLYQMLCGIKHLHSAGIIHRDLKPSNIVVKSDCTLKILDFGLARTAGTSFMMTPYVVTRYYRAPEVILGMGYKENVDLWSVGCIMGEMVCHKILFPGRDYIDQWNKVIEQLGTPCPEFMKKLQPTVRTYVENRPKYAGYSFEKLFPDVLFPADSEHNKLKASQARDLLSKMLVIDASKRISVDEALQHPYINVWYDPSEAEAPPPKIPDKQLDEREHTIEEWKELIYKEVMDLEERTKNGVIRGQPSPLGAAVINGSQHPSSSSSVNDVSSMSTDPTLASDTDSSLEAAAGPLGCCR

Turning to `CCOc1cc(C(=O)N2CCC(N3CCN(C)CC3)CC2)ccc1Nc1ncc2c(n1)N(C1CCCC1)c1ccccc1C(=O)N2C` [Compound 26], the “% Ctrl, TIE1” value on panel of 442 kinases [1] was 100 % Ctrl. Besides, on panel of 442 kinases [2], the “% Ctrl, SYK” value came to 100 % Ctrl. Moreover, the “KINOMEscan: JNK1” value on panel of 442 kinases [3] came to 76. The “KINOMEscan: MELK” value on panel of 442 kinases [4] was 100.
On to `COc1cc(C(=O)N2CCC(N3CCN(C)CC3)CC2)ccc1Nc1ncc2c(n1)N1CCc3cccc(c31)C(=O)N2C` [Compound 24], for which the “% Ctrl, TIE1” value on panel of 442 kinases [1] amounted to 70 % Ctrl. In addition, the “% Ctrl, SYK” value on panel of 442 kinases [2] was 88 % Ctrl. Moreover, the “KINOMEscan: JNK1” value at panel of 442 kinases [3] stood at 63. The “KINOMEscan: MELK” value at panel of 442 kinases [4] is listed as 62.
As to `COc1cc(C(=O)N2CCC(N3CCN(C)CC3)CC2)ccc1Nc1ncc2c(n1)N(C)c1ccccc1C(=O)N2C` [15 (LRRK2-IN-1)], the “% Ctrl, TIE1” value on panel of 442 kinases [1] worked out at 100 % Ctrl. Besides, the “% Ctrl, SYK” value at panel of 442 kinases [2] came out at 100 % Ctrl. Moreover, at panel of 442 kinases [3], the “KINOMEscan: JNK1” value was 95. Moreover, the “KINOMEscan: MELK” value at panel of 442 kinases [4] was determined as 100.
Consider `COc1cc(C(=O)N2CCC(N3CCN(C)CC3)CC2)ccc1Nc1ncc2c(n1)N(C1CCCC1)c1ccccc1C(=O)N2C` [Compound 25, 11-cyclopentyl-2-((2-methoxy-4-(4-(4-methylpiperazin-1-yl)piperidine-1-carbonyl)phenyl)amino)-5-methyl-5H-benzo[e]pyrimido[5,4-b][1,4]diazepin-6(11H)-one], for which the “% Ctrl, TIE1” value at panel of 442 kinases [1] is listed as 100 % Ctrl. Besides, the “% Ctrl, SYK” value on panel of 442 kinases [2] is 100 % Ctrl. Further, at panel of 442 kinases [3], the “KINOMEscan: JNK1” value came out at 38. Also, on panel of 442 kinases [4], the “KINOMEscan: MELK” value came out at 100.

Source of the values: publication PMC3914206.
